According to patent US20120308673A1, “COMPOSITION COMPRISING THE EXTRACT OF PRUNELLA VULGARIS L. FOR PREVENTING AND TREATING ADHD DISEASE AND THE USE THEREOF” (priority 2009, published 2012):

Legend:
SHR animal model [1] = test: Effect on hyperactivity of SHR animal model (total movement distance and duration in test box); format: in vivo, rat; settings: 3 mg/kg intraperitoneally, 30 mins after treatment, recorded for 10 mins
Method: To test the inhibitory effect of the extract of […] prepared in Example 1 on the hyperactivity of SHR animals, following test was performed according to the procedure disclosed in the literature (Kong, W. X et al., Effect on taurine on rat behaviors in three anxiety models, (2006), Pharmacology Biochem., Behavior 83:271-276; Arulmozhi D. K. et al, Pharmacological studies of the aqueous extract of Sapindus trifoliatus on central nervous system: possible ant-migraine mechanism, J. Ethnophamacol., 97:491-496).
The rats were acclimated with the environment for 1 week and with apparatus more than once for 10 mins prior to test. PV70E and PVW prepared in Example 1 used as test groups as well as methylphenidate (Johnson Mattey Public Limited Co.) used as a positive control were intraperitoneally administered into mice in a dose of 3 mg/kg.
30 mins after the treatment with test samples, the SHR mice, i.e., ADHD animal models, and normal mice used as negative control were placed on the test box to examine the movement of mice and to determine the total movement distance and total movement duration of the mice for 10 mins using by analysis apparatus (EthoVision system; Noldus IT b.v., Netherland).

SHR animal model [2] = test: Effect on alternation behavior of SHR animal model (modified Y-maze test); format: in vivo, rat; settings: 8 min period, dose dependent, p<0.05, FIG. 3
Method: To test the inhibitory effect of the extract of […] prepared in Example 1 on the alternation behavior of SHR animals, following modified Y-maze test was performed according to the procedure disclosed in the literature (Sarter M., et al., Attenuation of scopolamine-induced impairment of spontaneous alternation by antagonist but not agonist and agonist beta-carbolines, (1988), Psychopharmacology (Berl). 94:491-495; Kim D. H. et al, Gomisin A improves scopolamine-induced memory impairment in mice, (2006), Eur. J. Pharmacol., 542:129-235).
The Y-maze test was conducted in a three-arm maze with angles of 120° between the arms designates as A, B and C respectively, which were 42 cm long and 3 cm wide with walls that were 12 cm high each. The maze floor and walls were constructed from dark opaque polyvinyl plastic. Mice were initially placed within one arm and the sequence and number of arm entries were recorded manually for each mouse over an 8 min period. The percentage of triads in which all the arms were represented, i.e., ABC, CAB or BCA but not BAB, was recorded as an ‘alternation’ to estimate short-term memory. Control group animals received 0.9% saline solution and scopolamine (1 mg/kg, i.p.) or vehicle was introduced to induce memory impairment 30 mins before the test. […] The alternation score (%) for each mouse was calculated according to following math formula 1: […]

COC(=O)C(c1ccccc1)C1CCCCN1 (stereo not drawn) [methylphenidate]
general movement of SHR (total movement distance and rearing number) (SHR animal model [1]; SHR, FIGS. 1 and 2): did not affect | movement of normal mice (SHR animal model [1]; normal mice): increased the movement | alternation behavior of SHR (SHR animal model [2]): inhibiting effect
